Data as given in ChEMBL document CHEMBL1201862, “PubChem BioAssay data set” (2004).
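A five-concentration, 48-hour dose response in 96-well plates underlies each endpoint, interpolated linearly between surrounding concentrations. GI50 marks 50% less growth.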 Active and inactive are the calls of the source. No stated cut-off is given here; in the data, active = GI50 up to about 1.1 µM and inactive = higher.

What was measured:
Assay in all cases: growth of human tumour cells (NCI), 48 h
ACHN = test system: ACHN
SNB-19 = test system: SNB-19
NCI-H23 = test system: NCI-H23
OVCAR-8 = test system: OVCAR-8
MDA-MB-435 = test system: MDA-MB-435
LOX IMVI = test system: LOX IMVI
RXF 393 = test system: RXF 393
SW-620 = test system: SW-620
EKVX = test system: EKVX
T47D = test system: T47D
NCI-H460 = test system: NCI-H460
U-251 = test system: U-251
A498 = test system: A498
UO-31 = test system: UO-31
HOP-62 = test system: HOP-62
TK-10 = test system: TK-10
MOLT-4 = test system: MOLT-4
CCRF-CEM = test system: CCRF-CEM
HT-29 = test system: HT-29
UACC-257 = test system: UACC-257

Measured: GI50

COc1cc2cccc(N)c2cc1OC
inactive: ACHN > 100 µM | SNB-19 > 100 µM | NCI-H23 > 100 µM | OVCAR-8 > 100 µM | MDA-MB-435 > 100 µM | LOX IMVI > 100 µM | RXF 393 > 100 µM | SW-620 > 100 µM | EKVX > 100 µM | T47D > 100 µM | NCI-H460 > 100 µM | U-251 > 100 µM | A498 > 100 µM | UO-31 > 100 µM | HOP-62 > 100 µM | TK-10 > 26.3 µM | MOLT-4 > 100 µM | CCRF-CEM > 80.5 µM | HT-29 > 100 µM | UACC-257 > 100 µM

N#Cc1c(C#N)c(SSc2c(C#N)c(C#N)c(N)n2-c2cccc3ccccc23)n(-c2cccc3ccccc23)c1N
inactive: ACHN 5.15 µM | SNB-19 20.9 µM | NCI-H23 11.2 µM | OVCAR-8 4.36 µM | MDA-MB-435 8.77 µM | LOX IMVI 7.94 µM | RXF 393 6.08 µM | SW-620 2.56 µM | EKVX 5.51 µM | T47D 1.92 µM | NCI-H460 46.8 µM | U-251 19.7 µM | A498 30.2 µM | UO-31 2.34 µM | HOP-62 21.7 µM | TK-10 5.77 µM | MOLT-4 2.63 µM | CCRF-CEM 1.97 µM | HT-29 19.7 µM | UACC-257 5.62 µM

COc1cc(/C=C/C(=O)Oc2ccccc2)ccc1C(=O)O/C=C/c1ccccc1
inactive: ACHN > 100 µM | SNB-19 > 100 µM | NCI-H23 > 100 µM | OVCAR-8 > 100 µM | MDA-MB-435 > 100 µM | LOX IMVI > 100 µM | RXF 393 > 100 µM | SW-620 > 100 µM | EKVX > 100 µM | T47D > 100 µM | NCI-H460 > 100 µM | U-251 > 100 µM | A498 > 21.5 µM | UO-31 > 100 µM | HOP-62 > 100 µM | TK-10 > 100 µM | MOLT-4 > 93.3 µM | CCRF-CEM 17.7 µM | HT-29 > 100 µM | UACC-257 > 100 µM

CSc1ccc(-c2cc(-c3nc4ccccc4[nH]3)nc(N)c2C#N)cc1
inactive: ACHN 19.9 µM | SNB-19 25.2 µM | NCI-H23 24.9 µM | OVCAR-8 31.6 µM | MDA-MB-435 17.7 µM | LOX IMVI 18.2 µM | RXF 393 2.58 µM | SW-620 31.3 µM | EKVX 20.1 µM | T47D 13.5 µM | NCI-H460 22 µM | A498 15 µM | HOP-62 19.1 µM | TK-10 31.6 µM | MOLT-4 8.39 µM | CCRF-CEM 13.3 µM | HT-29 21.9 µM | UACC-257 18.5 µM

C[C@]12CC[C@H]3[C@@H](CC=C4C[C@@H](O)CC[C@@]43C)[C@@H]1C/C(=C\c1ccncc1)[C@@H]2O
inactive: ACHN 16.9 µM | SNB-19 21.2 µM | NCI-H23 13.7 µM | OVCAR-8 15 µM | MDA-MB-435 19.7 µM | LOX IMVI 22 µM | RXF 393 18.1 µM | SW-620 31.1 µM | EKVX 14.8 µM | T47D 12.1 µM | NCI-H460 15.1 µM | U-251 16.5 µM | A498 13.9 µM | UO-31 27.1 µM | HOP-62 29.9 µM | TK-10 39.3 µM | MOLT-4 9.77 µM | CCRF-CEM 19.5 µM | HT-29 20.9 µM | UACC-257 17.3 µM

O=C1OC(c2ccc([N+](=O)[O-])cc2)=N/C1=C\c1ccc(O)cc1
inactive: ACHN > 100 µM | SNB-19 > 100 µM | NCI-H23 > 100 µM | OVCAR-8 > 100 µM | MDA-MB-435 > 100 µM | LOX IMVI > 100 µM | RXF 393 > 100 µM | SW-620 > 100 µM | EKVX > 100 µM | T47D > 100 µM | NCI-H460 > 100 µM | U-251 > 100 µM | A498 > 100 µM | HOP-62 > 100 µM | TK-10 > 100 µM | MOLT-4 > 100 µM | CCRF-CEM > 100 µM | HT-29 > 100 µM | UACC-257 > 100 µM

CCOC(=O)N1C(=S)C(C(=O)OC)(C(=O)OC)N=C1C
inactive: ACHN > 100 µM | SNB-19 > 100 µM | NCI-H23 > 100 µM | OVCAR-8 > 100 µM | MDA-MB-435 > 100 µM | LOX IMVI > 100 µM | RXF 393 > 100 µM | SW-620 > 100 µM | EKVX > 100 µM | T47D > 100 µM | NCI-H460 > 100 µM | U-251 > 100 µM | A498 > 100 µM | UO-31 > 100 µM | HOP-62 > 100 µM | TK-10 > 100 µM | MOLT-4 > 100 µM | CCRF-CEM > 100 µM | UACC-257 > 100 µM

Cc1ccc(S(=O)(=O)n2cc(C=O)c(-c3cn(S(=O)(=O)c4ccc(C)cc4)cc3-c3cn(S(=O)(=O)c4ccc(C)cc4)cc3C=O)c2)cc1
inactive: SNB-19 50.2 µM | NCI-H23 23.7 µM | OVCAR-8 37.2 µM | MDA-MB-435 44.8 µM | LOX IMVI 21.9 µM | RXF 393 29.5 µM | SW-620 45.1 µM | EKVX 16.7 µM | T47D 28 µM | NCI-H460 29.2 µM | U-251 29.6 µM | A498 > 100 µM | UO-31 52.6 µM | HOP-62 > 100 µM | TK-10 20.9 µM | MOLT-4 12.8 µM | CCRF-CEM 17.9 µM | HT-29 36.2 µM | UACC-257 54.1 µM

N#CCN1CCN(CC#N)CCN(CC#N)CCN(CC#N)CC1
inactive: ACHN > 100 µM | SNB-19 > 100 µM | NCI-H23 > 100 µM | OVCAR-8 > 100 µM | MDA-MB-435 > 100 µM | LOX IMVI 33.3 µM | RXF 393 79.6 µM | SW-620 42 µM | T47D > 100 µM | NCI-H460 53.3 µM | U-251 > 100 µM | A498 > 100 µM | UO-31 > 100 µM | HOP-62 > 100 µM | TK-10 > 100 µM | MOLT-4 > 100 µM | CCRF-CEM 67 µM | HT-29 50.5 µM | UACC-257 > 100 µM

CCOC(=O)CC(N1CC1)N1CC1
inactive: ACHN > 10 µM | SNB-19 > 10 µM | NCI-H23 > 10 µM | MDA-MB-435 > 10 µM | LOX IMVI > 10 µM | RXF 393 > 10 µM | SW-620 > 10 µM | EKVX > 10 µM | T47D > 10 µM | NCI-H460 > 10 µM | U-251 > 10 µM | A498 > 10 µM | UO-31 > 10 µM | HOP-62 > 10 µM | TK-10 > 10 µM | MOLT-4 > 10 µM | CCRF-CEM > 10 µM | HT-29 > 10 µM | UACC-257 > 10 µM
